Earlier results in patent EP3663750B1, “SCAFFOLDED NUCLEIC ACID POLYMER PARTICLES AND METHODS OF MAKING AND USING” (Life Technologies Corporation, priority 2009, dated 2010).

Details: Oil Soluble Azo Initiator Compounds; temperature at which the initiator has a half-life of 10h

First: CC(C)CC(C)(C#N)N=NC(C)(C#N)CC(C)C (centres unmarked)
Second: CCC(C)(C#N)N=NC(C)(C#N)CC (centres unmarked)
The “10 hour half-life decomposition temperature” value of the first is lower: 51 °C for the first, 67 °C for the second.

Going from `N#CC1(N=NC2(C#N)CCCCC2)CCCCC1` to `CC(C)(N=NC(C)(C)C(=O)NC1CCCCC1)C(=O)NC1CCCCC1`, the “10 hour half-life decomposition temperature” value rises from 88 °C to 111 °C.

Going from `C=CCNC(=O)C(C)(C)N=NC(C)(C)C(=O)NCC=C` to `CCCCNC(=O)C(C)(C)N=NC(C)(C)C(=O)NCCCC`, the “10 hour half-life decomposition temperature” value rises from 96 °C to 110 °C.

Same assay, conditions: Water Soluble Azo Initiator Compounds; temperature at which the initiator has a half-life of 10h

Compared with `CC(C)(N=NC(C)(C)C1=NCCN1CCO)C1=NCCN1CCO`, `CC(C)(N=NC(C)(C)C(=N)N1CCCC1)C(=N)N1CCCC1` is higher in “10 hour half-life decomposition temperature” value: 60 °C for the first, 67 °C for the second.

For `CC(C)(N=NC(C)(C)C(=O)NCCO)C(=O)NCCO`, the “10 hour half-life decomposition temperature” value is listed as 87 °C.

Same assay, conditions: buffer

For `CC(C)(N=NC(C)(C)C1=NCCN1)C1=NCCN1` [drawing 1], the “10 hour half-life decomposition temperature” value is given as 44 °C.
For `CC(C)(N=NC(C)(C)C1=NCCN1)C1=NCCN1` [drawing 6], the “10 hour half-life decomposition temperature” value is listed as 61 °C.
